This assay concerns the target C-C chemokine receptor type 5 (Homo sapiens, UniProt P51681). In words: Antagonist activity at Homo sapiens (human) CCR5 receptor.

Chain of C-C chemokine receptor type 5 (P51681 whole entry): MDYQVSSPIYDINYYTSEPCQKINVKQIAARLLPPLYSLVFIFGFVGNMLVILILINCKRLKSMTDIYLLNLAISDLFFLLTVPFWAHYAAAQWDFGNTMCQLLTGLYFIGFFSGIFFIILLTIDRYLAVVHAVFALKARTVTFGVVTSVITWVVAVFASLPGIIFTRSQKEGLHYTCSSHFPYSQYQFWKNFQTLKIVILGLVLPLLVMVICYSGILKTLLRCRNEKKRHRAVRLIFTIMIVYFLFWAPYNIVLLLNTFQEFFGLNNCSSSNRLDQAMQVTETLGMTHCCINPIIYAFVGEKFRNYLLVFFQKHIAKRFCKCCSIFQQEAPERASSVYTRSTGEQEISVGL

`CCc1cccc(CC)c1NC(=O)NCC1(O)CCC(Cc2cc(Br)ccc2OCc2ccc(Cl)cc2)CC1` (stereo not drawn): the IC50 (usually the concentration that inhibits the measured activity by half) was 11 nM. Under `O=C(NCC1(O)CCC(Cc2cc(Br)ccc2OCc2ccc(Cl)cc2)CC1)Nc1c(F)cccc1F` (stereo not drawn) stands 320 nM; under `CC(C)c1cccc(C(C)C)c1NC(=O)NCC1(O)CCC(Cc2cc(Br)ccc2OCc2ccc(Cl)cc2)CC1` (stereo not drawn), 35 nM. Under `CCN(CC)c1cc(Br)ccc1OCc1ccc(Cl)cc1` stands 1400 nM.

The compound `CC/C(=N\NC(=N)N)c1cc(Br)ccc1OCc1ccc(Cl)cc1` had an IC50 of 400 nM. For the compound `CN(C)c1cc(Br)ccc1OCc1ccc(Cl)cc1`, the IC50 is 600 nM.

For `Cc1cc(C)c(NC(=O)NCC2(O)CCC(Cc3cc(Br)ccc3OCc3ccc(Cl)cc3)CC2)c(C)c1` (stereo not drawn), the IC50 is 100 nM. The result for `C/C(=N\NC(=N)N)c1cc(Br)ccc1OCc1ccc(C#N)cc1` reads 92.9 nM; that for `CC1CCN(CC2(O)CCN(Cc3cc(Br)ccc3OCc3ccc(Cl)cc3)CC2)CC1`, 210 nM.

On to `O=C(NCC1(O)CCC(Cc2cc(Br)ccc2OCc2ccc(Cl)cc2)CC1)Nc1c(Cl)cccc1Cl` (stereo not drawn), for which the IC50 is 57 nM.

Consider `N=C(N)N/N=C/c1cc(Br)ccc1OCc1ccc(F)c(F)c1`, for which the midpoint of inhibition, the IC50, lay at 3700 nM. Regarding `N=C(N)N/N=C/c1cc(Br)ccc1OCc1ccc(Cl)cc1`, the IC50 was 600 nM. Under `N=C(N)N/N=C/c1cc(Br)ccc1OCc1cccc(Cl)c1` stands 839 nM; under `O=C(NCC1(O)CCC(Cc2cc(Br)ccc2OCc2ccc(Cl)cc2)CC1)Nc1c(Cl)cc(Cl)cc1Cl` (stereo not drawn), 450 nM. Under `Cc1cccc(C)c1NC(=O)NCC1(O)CCC(Cc2cc(Br)ccc2OCc2ccc(Cl)cc2)CC1` (stereo not drawn) stands 47 nM; under `Cc1cc(Br)cc(C)c1NC(=O)NCC1(O)CCC(Cc2cc(Br)ccc2OCc2ccc(Cl)cc2)CC1` (stereo not drawn), 170 nM; under `Cc1ccc(NC(=O)NCC2(O)CCC(Cc3cc(Br)ccc3OCc3ccc(Cl)cc3)CC2)cc1` (stereo not drawn), 1500 nM.

`Brc1ccc(COc2ccc(Br)cc2N2CCOCC2)cc1`: the midpoint of inhibition, the IC50, lay at 1000 nM.

(Values after ChEMBL document CHEMBL3046174, “Docking and CoMFA study on novel human CCR5 receptor antagonists” (Med Chem Res, 2013).)
